In brackets after ≈: the same amount, converted by molar mass.
Experiments:
[1] = test system: Mycolicibacterium smegmatis; test: Antimycobacterial activity against Mycobacterium smegmatis MC2 155 assessed as ATP leakage by measuring intracellular ATP at 4 times MIC measured at 9 hrs post dose by luciferase reporter gene assay; assay type: functional, str. MC2 155
[2] = test system: Mycolicibacterium smegmatis; test: Antimycobacterial activity against Mycobacterium smegmatis MC2 155 assessed as ATP leakage by measuring intracellular ATP at 0.5 times MIC measured at 6 hrs post dose by luciferase reporter gene assay; assay type: functional, str. MC2 155
[3] = test system: Mycolicibacterium smegmatis; test: Antimycobacterial activity against Mycobacterium smegmatis MC2 155 after 24 hrs by broth dilution assay; assay type: functional; settings: str. MC2 155, 24 h
[4] = test system: Mycolicibacterium smegmatis; test: Antimycobacterial activity against Mycobacterium smegmatis MC2 155 assessed as inhibition of respiratory ATP synthesis by measuring ATP level at 2 times MIC measured after 6 hrs by luciferase reporter gene assay (reference value: 212.7%); assay type: functional, str. MC2 155; parameters: scale not given: the % may be the effect or the level left
[5] = test system: Mycolicibacterium smegmatis; test: Antimycobacterial activity against Mycobacterium smegmatis MC2 155 assessed as inhibition of respiratory ATP synthesis by measuring ATP level at 2 times MIC measured after 6 hrs by luciferase reporter gene assay (reference value: 152%); assay type: functional, str. MC2 155; parameters: scale not given: the % may be the effect or the level left
[6] = test system: Mycolicibacterium smegmatis; test: Antimycobacterial activity against Mycobacterium smegmatis MC2 155 assessed as ATP leakage by measuring extracellular ATP at 2 times MIC measured at 24 hrs post dose by luciferase reporter gene assay; assay type: functional, str. MC2 155
[7] = test system: Mycolicibacterium smegmatis; test: Antimycobacterial activity against Mycobacterium smegmatis MC2 155 assessed as ATP leakage by measuring intracellular ATP at 4 times MIC measured at 3 hrs post dose by luciferase reporter gene assay; assay type: functional, str. MC2 155
[8] = test system: Mycolicibacterium smegmatis; test: Antimycobacterial activity against Mycobacterium smegmatis MC2 155 assessed as ATP leakage by measuring extracellular ATP at 4 times MIC measured at 3 hrs post dose by luciferase reporter gene assay; assay type: functional, str. MC2 155
[9] = test system: Mycolicibacterium smegmatis; test: Antimycobacterial activity against Mycobacterium smegmatis MC2 155 assessed as ATP leakage by measuring extracellular ATP at MIC measured at 24 hrs post dose by luciferase reporter gene assay; assay type: functional, str. MC2 155
[10] = test system: Mycolicibacterium smegmatis; test: Antimycobacterial activity against Mycobacterium smegmatis MC2 155 assessed as ATP leakage by measuring intracellular ATP at 2 times MIC measured immediatey after addition of compounds by luciferase reporter gene assay; assay type: functional, str. MC2 155
[11] = test system: Mycolicibacterium smegmatis; test: Antimycobacterial activity against Mycobacterium smegmatis MC2 155 assessed as ATP leakage by measuring extracellular ATP at 2 times MIC measured at 1 hr of post dose by luciferase reporter gene assay; assay type: functional, str. MC2 155
[12] = test system: Mycolicibacterium smegmatis; test: Antimycobacterial activity against Mycobacterium smegmatis MC2 155 assessed as ATP leakage by measuring intracellular ATP at 2 times MIC measured at 3 hrs post dose by luciferase reporter gene assay; assay type: functional, str. MC2 155
[13] = test system: Mycolicibacterium smegmatis; test: Antimycobacterial activity against Mycobacterium smegmatis MC2 155 assessed as ATP leakage by measuring extracellular ATP at 0.5 times MIC measured at 9 hrs post dose by luciferase reporter gene assay; assay type: functional, str. MC2 155
[14] = test system: Mycolicibacterium smegmatis; test: Antimycobacterial activity against Mycobacterium smegmatis MC2 155 assessed as ATP leakage by measuring extracellular ATP at 4 times MIC measured at 9 hrs post dose by luciferase reporter gene assay; assay type: functional, str. MC2 155
[15] = test system: Mycolicibacterium smegmatis; test: Antimycobacterial activity against Mycobacterium smegmatis MC2 155 assessed as ATP leakage by measuring intracellular ATP at 4 times MIC measured immediatey after addition of compounds by luciferase reporter gene assay; assay type: functional, str. MC2 155
[16] = test system: Mycolicibacterium smegmatis; test: Antimycobacterial activity against Mycobacterium smegmatis MC2 155 assessed as inhibition of respiratory ATP synthesis by measuring ATP level at 2 times MIC measured after 1 hr by luciferase reporter gene assay (reference value: 90.6%); assay type: functional, str. MC2 155; parameters: scale not given: the % may be the effect or the level left
[17] = test system: Mycolicibacterium smegmatis; test: Antimycobacterial activity against Mycobacterium smegmatis MC2 155 assessed as ATP leakage by measuring extracellular ATP at 0.5 times MIC measured at 1 hr of post dose by luciferase reporter gene assay; assay type: functional, str. MC2 155
[18] = test system: Mycolicibacterium smegmatis; test: Antimycobacterial activity against Mycobacterium smegmatis MC2 155 assessed as ATP leakage by measuring intracellular ATP at 0.5 times MIC measured immediatey after addition of compounds by luciferase reporter gene assay; assay type: functional, str. MC2 155
[19] = test system: Mycolicibacterium smegmatis; test: Antimycobacterial activity against Mycobacterium smegmatis MC2 155 assessed as ATP leakage by measuring extracellular ATP at 0.5 times MIC measured immediatey after addition of compounds by luciferase reporter gene assay by luciferase reporter gene assay by luciferase reporter gene assay; assay type: functional, str. MC2 155
[20] = test system: Mycolicibacterium smegmatis; test: Antimycobacterial activity against Mycobacterium smegmatis MC2 155 assessed as ATP leakage by measuring extracellular ATP at MIC measured immediatey after addition of compounds by luciferase reporter gene assay; assay type: functional, str. MC2 155
[21] = test system: Mycolicibacterium smegmatis; test: Antimycobacterial activity against Mycobacterium smegmatis MC2 155 assessed as ATP leakage by measuring intracellular ATP at 4 times MIC measured at 6 hrs post dose by luciferase reporter gene assay; assay type: functional, str. MC2 155
[22] = test system: Mycolicibacterium smegmatis; test: Antimycobacterial activity against Mycobacterium smegmatis MC2 155 assessed as ATP leakage by measuring intracellular ATP at 4 times MIC measured at 1 hr of post dose by luciferase reporter gene assay; assay type: functional, str. MC2 155
[23] = test system: Mycolicibacterium smegmatis; test: Antimycobacterial activity against Mycobacterium smegmatis MC2 155 assessed as ATP leakage by measuring intracellular ATP at MIC measured at 24 hrs post dose by luciferase reporter gene assay; assay type: functional, str. MC2 155
[24] = test system: Mycolicibacterium smegmatis; test: Antimycobacterial activity against Mycobacterium smegmatis MC2 155 assessed as ATP leakage by measuring intracellular ATP at MIC measured at 3 hrs post dose by luciferase reporter gene assay; assay type: functional, str. MC2 155
[25] = test system: Mycolicibacterium smegmatis; test: Antimycobacterial activity against Mycobacterium smegmatis MC2 155 assessed as ATP leakage by measuring extracellular ATP at 2 times MIC measured at 6 hrs post dose by luciferase reporter gene assay; assay type: functional, str. MC2 155
[26] = test system: Mycolicibacterium smegmatis; test: Antimycobacterial activity against Mycobacterium smegmatis MC2 155 assessed as ATP leakage by measuring extracellular ATP at 0.5 times MIC measured at 6 hrs post dose by luciferase reporter gene assay; assay type: functional, str. MC2 155
[27] = test system: Mycolicibacterium smegmatis; test: Antimycobacterial activity against Mycobacterium smegmatis MC2 155 assessed as ATP leakage by measuring intracellular ATP at 2 times MIC measured at 24 hrs post dose by luciferase reporter gene assay; assay type: functional, str. MC2 155
[28] = test system: Mycolicibacterium smegmatis; test: Antimycobacterial activity against Mycobacterium smegmatis MC2 155 assessed as ATP leakage by measuring extracellular ATP at MIC measured at 6 hrs post dose by luciferase reporter gene assay; assay type: functional, str. MC2 155
[29] = Drug metabolism in rat liver microsomes at 1 uM preincubated for 5 mins followed by NADPH addition measured up to 30 mins by LC-MS/MS method; assay type: ADME; settings: read-out: Drug metabolism
[30] = test system: Mycolicibacterium smegmatis; test: Antimycobacterial activity against Mycobacterium smegmatis MC2 155 assessed as ATP leakage by measuring extracellular ATP at 2 times MIC measured immediatey after addition of compounds by luciferase reporter gene assay; assay type: functional, str. MC2 155
[31] = test system: Mycolicibacterium smegmatis; test: Antimycobacterial activity against Mycobacterium smegmatis MC2 155 assessed as ATP leakage by measuring intracellular ATP at 4 times MIC measured at 24 hrs post dose by luciferase reporter gene assay; assay type: functional, str. MC2 155
[32] = test system: Mycolicibacterium smegmatis; test: Antimycobacterial activity against Mycobacterium smegmatis MC2 155 assessed as ATP leakage by measuring extracellular ATP at 2 times MIC measured at 9 hrs post dose by luciferase reporter gene assay; assay type: functional, str. MC2 155
[33] = test system: Mycolicibacterium smegmatis; test: Antimycobacterial activity against Mycobacterium smegmatis MC2 155 assessed as ATP leakage by measuring extracellular ATP at MIC measured at 9 hrs post dose by luciferase reporter gene assay; assay type: functional, str. MC2 155
[34] = test system: Mycolicibacterium smegmatis; test: Antimycobacterial activity against Mycobacterium smegmatis MC2 155 assessed as ATP leakage by measuring intracellular ATP at 2 times MIC measured at 9 hrs post dose by luciferase reporter gene assay; assay type: functional, str. MC2 155

In the case of `CCCN(CCC)CCCCOc1cc2oc3cc(OCCCCN(CCC)CCC)c(OC)c(CC=C(C)C)c3c(=O)c2c(O)c1CC=C(C)C`, the Activity [1] is reported as 15.7%, the Activity [2] is reported as 69.4% and the MIC90 [3] is reported as 3.2 µM (≈ 2.31 µg/mL). It also gave an Activity [4] of 3.9%, an Activity [5] of 3.9% and an Activity [6] of 95.3%. The Activity [7] was 8.9%, the Activity [8] was 91.1% and the Activity [9] was 88.1%. The Activity [10] was 96%, the Activity [11] was 97.2% and the Activity [12] was 2.6%. It also gave an Activity [13] of 33.5%, an Activity [14] of 84.3% and an Activity [15] of 95.7%. The Activity [16] was 5.9%, the Activity [17] was 24.7% and the Activity [18] was 100%. For the same compound, the Activity [19] was 0%, the Activity [20] was 2.3% and the Activity [21] was 16.5%. It also gave an Activity [22] of 5.7%, an Activity [23] of 11.9% and an Activity [24] of 8.2%. It also gave an Activity [25] of 96.1%, an Activity [26] of 30.6% and an Activity [27] of 4.7%. It also gave an Activity [28] of 88%, a metabolised at 0.5 h, 1 µM [29] of 10% and an Activity [30] of 4%. For the same compound, the Activity [31] was 12%, the Activity [32] was 96.1% and the Activity [33] was 89.4%. It also gave an Activity [34] of 3.9%.
In the case of `CCN(CC)CCCCOc1cc2oc3cc(OCCCCN(CC)CC)c(OC)c(CC=C(C)C)c3c(=O)c2c(O)c1CC=C(C)C`, the Activity [1] is reported as 2.7%, the Activity [2] is reported as 87.8% and the MIC90 [3] is reported as 3.2 µM (≈ 2.13 µg/mL). The Activity [4] was 2.3%, the Activity [5] was 26.8% and the Activity [6] was 86.7%. The Activity [7] was 2.5%, the Activity [8] was 97.5% and the Activity [9] was 44.4%. The Activity [10] was 98.7%, the Activity [11] was 95.6% and the Activity [12] was 2.7%. It also gave an Activity [13] of 23.2%, an Activity [14] of 97.3% and an Activity [15] of 98.7%. The Activity [16] was 5.8%, the Activity [17] was 6.8% and the Activity [18] was 100%. For the same compound, the Activity [19] was 0%, the Activity [20] was 0.8% and the Activity [21] was 3.3%. It also gave an Activity [22] of 2.6%, an Activity [23] of 55.6% and an Activity [24] of 12%. It also gave an Activity [25] of 96.8%, an Activity [26] of 12.2% and an Activity [27] of 13.3%. For the same compound, the Activity [28] was 79.9%, the metabolised at 0.5 h, 1 µM [29] was 12.1% and the Activity [30] was 1.3%. For the same compound, the Activity [31] was 2.7%, the Activity [32] was 96.6% and the Activity [33] was 82.4%. The Activity [34] was 3.4%.
Compound `COc1c(OCCCCN2CCOCC2)cc2oc3cc(OCCCCN4CCOCC4)c(CC=C(C)C)c(O)c3c(=O)c2c1CC=C(C)C` has an Activity [1] of 7.9%, an Activity [2] of 86.8% and an MIC90 [3] of 35 µM (≈ 24.3 µg/mL). For the same compound, the Activity [4] was 11%, the Activity [5] was 18.9% and the Activity [6] was 94.7%. For the same compound, the Activity [7] was 44.7%, the Activity [8] was 55.3% and the Activity [9] was 88.7%. It also gave an Activity [10] of 97%, an Activity [11] of 30.4% and an Activity [12] of 36.6%. For the same compound, the Activity [13] was 26.5%, the Activity [14] was 92.1% and the Activity [15] was 96.2%. The Activity [16] was 50.2%, the Activity [17] was 2.2% and the Activity [18] was 100%. For the same compound, the Activity [19] was 0%, the Activity [20] was 2.3% and the Activity [21] was 6.7%. It also gave an Activity [22] of 57.3%, an Activity [23] of 11.3% and an Activity [24] of 55.3%. For the same compound, the Activity [25] was 76.7%, the Activity [26] was 13.2% and the Activity [27] was 5.3%. For the same compound, the Activity [28] was 36.3%, the metabolised at 0.5 h, 1 µM [29] was 0% and the Activity [30] was 3%. The Activity [31] was 4.5%, the Activity [32] was 84.4% and the Activity [33] was 58.6%. It also gave an Activity [34] of 15.6%.

Source: ChEMBL document CHEMBL3872220, “Amphiphilic xanthones as a potent chemical entity of anti-mycobacterial agents with membrane-targeting properties” (Eur J Med Chem, 2016)
